According to US20260232682A1, “GSPT1 DEGRADER COMPOUNDS” (Captor Therapeutics S.A., priority 2023, published 2026):

What was measured:
[1] = biological target: T1, [GSPT1]-[compound of formula (I)]-[CRBN/DDB1] complex (Homo sapiens, UniProt P15170+Q96SW2); assay: AlphaLISA ternary complex formation assay (GSPT1); format: binding; details: 0.5 h; 1 μM compound; normalized to reference compound CC-885; read-out: Normalized AlphaLISA ternary complex average signal at 1 μM molecule
Summary of the method: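 Biotinylated GSPT1 on streptavidin donor beads and 6×His-CRBN/DDB1 on anti-His acceptor beads (each 200 nM before mixing) in HBS pH 7.4 with 0.1% Tween-20 and 1 mM DTT, 2% DMSO final, 30 min at 25 °C. AlphaLISA luminescence is normalized between DMSO background and the reference compound's maximum.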

[2] = biological target: T2, [IKZF1 ZF2]-[compound]-[CRBN/DDB1] ternary complex (Homo sapiens, UniProt Q13422+Q96SW2); assay: AlphaLISA assay for off-target recruitment detection, IKZF1 ZF2; format: binding; details: 1 μM compound; normalized to Lenalidomide; read-out: Normalized ternary complex response, IKZF1 ZF2
T2 construct: IKZF1 ZF2
T2 sequence (Q13422 145-167 limits assumed): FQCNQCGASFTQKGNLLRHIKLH
T2 sequence (Q96SW2 whole entry): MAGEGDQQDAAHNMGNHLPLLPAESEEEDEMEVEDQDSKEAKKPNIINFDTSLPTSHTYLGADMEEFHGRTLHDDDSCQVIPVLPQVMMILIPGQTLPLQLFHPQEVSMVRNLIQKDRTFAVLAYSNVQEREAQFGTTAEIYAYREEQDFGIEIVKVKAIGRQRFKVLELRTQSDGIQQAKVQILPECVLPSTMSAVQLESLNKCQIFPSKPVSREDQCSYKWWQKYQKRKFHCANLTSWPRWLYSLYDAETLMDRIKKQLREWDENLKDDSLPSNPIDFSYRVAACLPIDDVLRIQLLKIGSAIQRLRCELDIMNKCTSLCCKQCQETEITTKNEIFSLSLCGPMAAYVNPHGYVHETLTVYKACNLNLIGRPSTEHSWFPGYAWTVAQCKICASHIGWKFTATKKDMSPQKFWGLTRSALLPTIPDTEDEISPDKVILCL
T2 sequence (Q16531 whole entry partner): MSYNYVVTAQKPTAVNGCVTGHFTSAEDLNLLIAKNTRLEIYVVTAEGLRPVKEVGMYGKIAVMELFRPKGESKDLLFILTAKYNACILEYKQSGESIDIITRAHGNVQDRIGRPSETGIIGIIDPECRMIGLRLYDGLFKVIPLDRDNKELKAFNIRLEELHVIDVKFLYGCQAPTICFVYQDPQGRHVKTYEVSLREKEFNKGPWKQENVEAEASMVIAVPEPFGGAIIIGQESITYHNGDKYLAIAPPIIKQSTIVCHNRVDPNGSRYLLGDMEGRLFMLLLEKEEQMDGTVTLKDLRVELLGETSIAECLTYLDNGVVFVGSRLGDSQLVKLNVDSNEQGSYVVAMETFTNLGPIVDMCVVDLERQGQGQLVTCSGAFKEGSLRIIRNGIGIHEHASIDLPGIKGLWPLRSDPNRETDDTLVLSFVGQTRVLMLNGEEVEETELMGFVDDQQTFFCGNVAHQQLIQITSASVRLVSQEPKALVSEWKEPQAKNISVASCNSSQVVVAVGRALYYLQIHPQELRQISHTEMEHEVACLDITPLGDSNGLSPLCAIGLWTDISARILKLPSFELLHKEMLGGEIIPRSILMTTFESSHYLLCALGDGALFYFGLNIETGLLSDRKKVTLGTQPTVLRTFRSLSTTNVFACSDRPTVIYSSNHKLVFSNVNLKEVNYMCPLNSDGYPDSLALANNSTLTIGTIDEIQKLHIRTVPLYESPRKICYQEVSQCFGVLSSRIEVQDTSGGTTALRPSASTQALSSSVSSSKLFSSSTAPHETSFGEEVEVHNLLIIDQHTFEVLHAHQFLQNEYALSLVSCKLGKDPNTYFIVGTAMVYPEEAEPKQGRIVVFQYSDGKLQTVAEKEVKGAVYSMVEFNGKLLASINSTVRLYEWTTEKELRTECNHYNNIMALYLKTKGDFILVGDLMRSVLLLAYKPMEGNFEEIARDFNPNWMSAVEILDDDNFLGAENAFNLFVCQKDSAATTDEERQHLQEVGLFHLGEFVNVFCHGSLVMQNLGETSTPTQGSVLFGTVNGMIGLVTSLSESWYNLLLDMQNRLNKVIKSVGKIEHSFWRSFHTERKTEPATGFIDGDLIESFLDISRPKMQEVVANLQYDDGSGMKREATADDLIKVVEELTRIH
Summary of the method: (§1)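 Neo-substrate with 40 μg/ml donor beads and 200 nM 6×His-CRBN/DDB1 with 40 μg/ml anti-His acceptor beads were each prepared in PBS pH 7.4 with Tween-20 and 1 mM DTT, preincubated 30 min at RT, then mixed. Compounds at 2% DMSO were incubated 30 min at 25 °C, read at 680/615 nm, and normalised between DMSO background and reference glue maximum.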

[3] = biological target: T3, [IKZF2 ZF2]-[compound]-[CRBN/DDB1] ternary complex (Homo sapiens, UniProt Q96SW2+Q9UKS7); assay: AlphaLISA assay for off-target recruitment detection, IKZF2 ZF2; format: binding; details: 1 μM compound; normalized to Helios modulator; read-out: Normalized ternary complex response, IKZF2 ZF2
T3 construct: IKZF2 ZF2
T3 sequence (Q9UKS7 140-162 limits assumed): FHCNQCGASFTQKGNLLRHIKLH
T3 sequence (Q96SW2 whole entry): as the sequence (Q96SW2 whole entry) above
T3 sequence (Q16531 whole entry partner): as the sequence (Q16531 whole entry partner) above
Summary of the method: as §1

[4] = biological target: T1, [GSPT1]-[compound of formula (I)]-[CRBN/DDB1] complex; assay: HTRF ternary complex assay (GSPT1); format: binding; details: read-out: HTRF ternary complex Average pEC50 by molecule (converted)
Summary of the method: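 Compounds in dose-response were incubated 180 min at 25 °C with 48 nM GSPT1 and 52.8 nM 6×His-CRBN/DDB1, plus Streptavidin-Eu cryptate and anti-6×His-d2, in buffer with 1 mM DTT and 0.5% DMSO. TR-FRET (665/620) was normalized to DMSO background and fitted with a Hill slope model for EC50/pEC50.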

[5] = system: GSPT1-HiBiT HEK293 cells; assay: Cell Viability-CTG assay accompanying the Nano-Glo HiBiT assay; format: cell-based; details: 6 hours treatment, viability of GSPT1-HiBiT HEK293 cells
Experimental: In parallel, the Cell Viability-CTG assay was performed to ensure that the potential decrease of the luminescent signal observed in the Nano-Glo HiBiT assay is a result of protein degradation and not a result of decreasing cell viability. For CTG assay accompanying the Nano-Glo HiBiT assay, cells were cultured, seeded and treated as described above. After 6 hours of incubation (37° C., 5% CO2), plates were removed from the incubator and let to equilibrate to RT. Luminescent signal detection was conducted using the CellTiter-Glo Lumiescent Cell Viability Assay (Promega, cat. nr G7573). 10 μL of the Cell Titer Glo reagent was added per well, plates were shaken to facilitate lysis (460 rpm, 4 min, RT) and incubated in the dark for the following 8 min. Luminescence was read using the CLARIOstar multimode plate reader (BMG LABTECH). The raw data (the relative luminescence unit values, RLU) were uploaded under the relevant protocol and analysed in CDDVault data management platform, in a manner similar to the description above. The Mean Minimum values were calculated in CDDVault using non-linear regression and appropriate equations.

[6] = biological target: T4, [SALL4 ZF2]-[compound]-[CRBN/DDB1] ternary complex (Homo sapiens, UniProt Q96SW2+Q9UJQ4); assay: AlphaLISA assay for off-target recruitment detection, SALL4 ZF2; format: binding; details: 1 μM compound; normalized to Lenalidomide; read-out: Normalized ternary complex response, SALL4 ZF2
T4 construct: SALL4 ZF2
T4 sequence (Q9UJQ4 410-432 limits assumed): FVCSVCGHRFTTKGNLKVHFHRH
T4 sequence (Q96SW2 whole entry): as the sequence (Q96SW2 whole entry) above
T4 sequence (Q16531 whole entry partner): as the sequence (Q16531 whole entry partner) above
Summary of the method: as §1

T1 sequence (P15170 whole entry): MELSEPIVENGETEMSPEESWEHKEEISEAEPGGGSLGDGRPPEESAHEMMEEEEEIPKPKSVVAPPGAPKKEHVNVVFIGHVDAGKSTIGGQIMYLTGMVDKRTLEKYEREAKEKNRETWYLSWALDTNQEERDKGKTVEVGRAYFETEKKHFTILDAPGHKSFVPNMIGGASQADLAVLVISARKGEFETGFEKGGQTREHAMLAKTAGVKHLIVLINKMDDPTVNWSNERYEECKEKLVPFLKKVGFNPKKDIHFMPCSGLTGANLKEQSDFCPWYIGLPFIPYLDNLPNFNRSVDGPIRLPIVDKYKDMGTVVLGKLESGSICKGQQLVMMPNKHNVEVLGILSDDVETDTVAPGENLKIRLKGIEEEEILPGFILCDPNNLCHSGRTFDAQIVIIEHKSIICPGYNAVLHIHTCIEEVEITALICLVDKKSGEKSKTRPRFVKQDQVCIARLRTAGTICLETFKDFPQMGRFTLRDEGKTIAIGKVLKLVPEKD
T1 sequence (Q96SW2 whole entry): as the sequence (Q96SW2 whole entry) above
T1 sequence (Q16531 whole entry partner): as the sequence (Q16531 whole entry partner) above

## Cc1nc2cc(COC(=O)Nc3cccc(OC(F)(F)F)c3)ccc2cc1C1CCC(=O)NC1=O (stereo not drawn) [Compound 19, (3-(2,6-dioxopiperidin-3-yl)-2-methylquinolin-7-yl)methyl (3-(trifluoromethoxy)phenyl)carbamate]
[1]
  activation at 1 µM: 10 to 50%
[2]
  activation at 1 µM: < 10%
[3]
  activation at 1 µM: < 10%
[4]
  EC50: > 3160 nM
[5]
  CTG assay Mean minimum: ++++ (++++≥75% of viability of the HiBiT-GSPT1 HEK293 cells)
[6]
  activation at 1 µM: < 10%

## Cc1nc2cc(COC(=O)Nc3cc(C(F)(F)F)no3)ccc2cc1C1CCC(=O)NC1=O (stereo not drawn) [Compound 71, (3-(2,6-dioxopiperidin-3-yl)-2-methylquinolin-7-yl)methyl (3-(trifluoromethyl)isoxazol-5-yl)carbamate]
[1]
  activation at 1 µM: > 50%
[2]
  activation at 1 µM: < 10%
[3]
  activation at 1 µM: < 10%
[4]
  EC50: > 3160 nM
[5]
  CTG assay Mean minimum: ++++ (++++≥75% of viability of the HiBiT-GSPT1 HEK293 cells)
[6]
  activation at 1 µM: < 10%

## Cc1nc2cc(COC(=O)Nc3cccc(C(C)(C)C)c3)ccc2cc1C1CCC(=O)NC1=O (stereo not drawn) [Compound 9, (3-(2,6-dioxopiperidin-3-yl)-2-methylquinolin-7-yl)methyl (3-(tert-butyl)phenyl)carbamate]
[1]
  activation at 1 µM: 10 to 50%
[2]
  activation at 1 µM: < 10%
[3]
  activation at 1 µM: < 10%
[4]
  EC50: 316 to 3160 nM
[5]
  CTG assay Mean minimum: ++++ (++++≥75% of viability of the HiBiT-GSPT1 HEK293 cells)
[6]
  activation at 1 µM: < 10%

## COc1ccc(NC(=O)OCc2ccc3cc(C4CCC(=O)NC4=O)c(C)nc3c2)cc1Cl (stereo not drawn) [Compound 11, (3-(2,6-dioxopiperidin-3-yl)-2-methylquinolin-7-yl)methyl (3-chloro-4-methoxyphenyl)carbamate]
[1]
  activation at 1 µM: > 50%
[2]
  activation at 1 µM: < 10%
[3]
  activation at 1 µM: < 10%
[4]
  EC50: 316 to 3160 nM
[5]
  CTG assay Mean minimum: ++++ (++++≥75% of viability of the HiBiT-GSPT1 HEK293 cells)
[6]
  activation at 1 µM: < 10%

## Cc1ccc(NC(=O)OCc2cc3nc(C)c(C4CCC(=O)NC4=O)cc3cc2F)cc1Cl (stereo not drawn) [Compound 49, (3-(2,6-dioxopiperidin-3-yl)-6-fluoro-2-methylquinolin-7-yl)methyl (3-chloro-4-methylphenyl)carbamate]
[1]
  activation at 1 µM: 10 to 50%
[2]
  activation at 1 µM: < 10%
[3]
  activation at 1 µM: < 10%
[4]
  EC50: 316 to 3160 nM
[5]
  CTG assay Mean minimum: ++++ (++++≥75% of viability of the HiBiT-GSPT1 HEK293 cells)
[6]
  activation at 1 µM: < 10%

## COc1cc(C)c(Cl)cc1NC(=O)OCc1ccc2cc(C3CCC(=O)NC3=O)c(C)nc2c1 (stereo not drawn) [Compound 21, (3-(2,6-dioxopiperidin-3-yl)-2-methylquinolin-7-yl)methyl (5-chloro-2-methoxy-4-methylphenyl)carbamate]
[1]
  activation at 1 µM: > 50%
[2]
  activation at 1 µM: < 10%
[3]
  activation at 1 µM: < 10%
[4]
  EC50: 316 to 3160 nM
[5]
  CTG assay Mean minimum: ++++ (++++≥75% of viability of the HiBiT-GSPT1 HEK293 cells)
[6]
  activation at 1 µM: < 10%

## Cc1nc2cc(COC(=O)Nc3ccc(N4CCOCC4)nc3)ccc2cc1C1CCC(=O)NC1=O (stereo not drawn) [Compound 42, (3-(2,6-dioxopiperidin-3-yl)-2-methylquinolin-7-yl)methyl (6-morpholinopyridin-3-yl)carbamate]
[1]
  activation at 1 µM: > 50%
[2]
  activation at 1 µM: < 10%
[3]
  activation at 1 µM: < 10%
[4]
  EC50: 316 to 3160 nM
[5]
  CTG assay Mean minimum: ++++ (++++≥75% of viability of the HiBiT-GSPT1 HEK293 cells)
[6]
  activation at 1 µM: < 10%

## Cc1nc2cc(COC(=O)Nc3cc(C(C)(C)C)on3)ccc2cc1C1CCC(=O)NC1=O (stereo not drawn) [Compound 70, (3-(2,6-dioxopiperidin-3-yl)-2-methylquinolin-7-yl)methyl (5-(tert-butyl)isoxazol-3-yl)carbamate]
[1]
  activation at 1 µM: > 50%
[2]
  activation at 1 µM: < 10%
[3]
  activation at 1 µM: < 10%
[4]
  EC50: < 316 nM
[5]
  CTG assay Mean minimum: ++++ (++++≥75% of viability of the HiBiT-GSPT1 HEK293 cells)
[6]
  activation at 1 µM: < 10%

## Cc1ccc(NC(=O)OCc2ccc3cc(C4CCC(=O)NC4=O)c(C)nc3c2)c(Cl)c1Cl (stereo not drawn) [Compound 54, (3-(2,6-dioxopiperidin-3-yl)-2-methylquinolin-7-yl)methyl (2,3-dichloro-4-methylphenyl)carbamate]
[1]
  activation at 1 µM: > 50%
[2]
  activation at 1 µM: < 10%
[3]
  activation at 1 µM: < 10%
[4]
  EC50: 316 to 3160 nM
[5]
  CTG assay Mean minimum: ++++ (++++≥75% of viability of the HiBiT-GSPT1 HEK293 cells)
[6]
  activation at 1 µM: < 10%

## Cc1nc2cc(COC(=O)Nc3cc(C(C)(C)C)no3)ccc2cc1C1CCC(=O)NC1=O (stereo not drawn) [Compound 30, (3-(2,6-dioxopiperidin-3-yl)-2-methylquinolin-7-yl)methyl (3-(tert-butyl)isoxazol-5-yl)carbamate]
[1]
  activation at 1 µM: > 50%
[2]
  activation at 1 µM: < 10%
[3]
  activation at 1 µM: < 10%
[4]
  EC50: 316 to 3160 nM
[5]
  CTG assay Mean minimum: ++++ (++++≥75% of viability of the HiBiT-GSPT1 HEK293 cells)
[6]
  activation at 1 µM: < 10%

## Cc1nc2cc(COC(=O)Nc3ccc(-c4ccccc4)nc3)ccc2cc1C1CCC(=O)NC1=O (stereo not drawn) [Compound 20, (3-(2,6-dioxopiperidin-3-yl)-2-methylquinolin-7-yl)methyl (6-phenylpyridin-3-yl)carbamate]
[1]
  activation at 1 µM: 10 to 50%
[2]
  activation at 1 µM: < 10%
[3]
  activation at 1 µM: < 10%
[4]
  EC50: < 316 nM
[5]
  CTG assay Mean minimum: ++++ (++++≥75% of viability of the HiBiT-GSPT1 HEK293 cells)
[6]
  activation at 1 µM: < 10%

## COc1cnc(NC(=O)OCc2ccc3cc(C4CCC(=O)NC4=O)c(C)nc3c2)cn1 (stereo not drawn) [Compound 59, (3-(2,6-dioxopiperidin-3-yl)-2-methylquinolin-7-yl)methyl (5-methoxypyrazin-2-yl)carbamate]
[1]
  activation at 1 µM: > 50%
[2]
  activation at 1 µM: < 10%
[3]
  activation at 1 µM: < 10%
[4]
  EC50: < 316 nM
[5]
  CTG assay Mean minimum: ++++ (++++≥75% of viability of the HiBiT-GSPT1 HEK293 cells)
[6]
  activation at 1 µM: < 10%

## Cc1ncc(NC(=O)OCc2ccc3cc(C4CCC(=O)NC4=O)c(C)nc3c2)cc1Cl (stereo not drawn) [Compound 58, (3-(2,6-dioxopiperidin-3-yl)-2-methylquinolin-7-yl)methyl (5-chloro-6-methylpyridin-3-yl)carbamate]
[1]
  activation at 1 µM: > 50%
[2]
  activation at 1 µM: < 10%
[3]
  activation at 1 µM: < 10%
[4]
  EC50: 316 to 3160 nM
[5]
  CTG assay Mean minimum: ++++ (++++≥75% of viability of the HiBiT-GSPT1 HEK293 cells)
[6]
  activation at 1 µM: < 10%

## Cc1nc2cc(COC(=O)Nc3ccc4c(c3)OCCO4)ccc2cc1C1CCC(=O)NC1=O (stereo not drawn) [Compound 15, (3-(2,6-dioxopiperidin-3-yl)-2-methylquinolin-7-yl)methyl (2,3-dihydrobenzo[b][1,4]dioxin-6-yl)carbamate]
[1]
  activation at 1 µM: 10 to 50%
[2]
  activation at 1 µM: < 10%
[3]
  activation at 1 µM: < 10%
[4]
  EC50: 316 to 3160 nM
[5]
  CTG assay Mean minimum: ++++ (++++≥75% of viability of the HiBiT-GSPT1 HEK293 cells)
[6]
  activation at 1 µM: < 10%

## Cc1ccc(NC(=O)OCc2ccc3c(C)c(C4CCC(=O)NC4=O)c(C)nc3c2)cc1Cl (stereo not drawn) [Compound 44, (3-(2,6-dioxopiperidin-3-yl)-2,4-dimethylquinolin-7-yl)methyl (3-chloro-4-methylphenyl)carbamate]
[1]
  activation at 1 µM: 10 to 50%
[2]
  activation at 1 µM: < 10%
[3]
  activation at 1 µM: < 10%
[4]
  EC50: < 316 nM
[5]
  CTG assay Mean minimum: ++++ (++++≥75% of viability of the HiBiT-GSPT1 HEK293 cells)
[6]
  activation at 1 µM: < 10%
